Experimental data from patent US5866775A, “Glyphosate-tolerant 5-enolpyruvyl-3-phosphoshikimate synthases” (Monsanto Company, priority 1990, dated 1999).

System: tobacco plants transformed with glyphosate-tolerant petunia EPSP synthase (pMON567)
Assay: Relative effect of glyphosate spray, GT plants
Assay type: in vivo, Nicotiana tobacam CV H425
From the text: A culture of A. tumefaciens cells containing pMON567/pGV3111-SE was co-cultured with leaf disks taken from tobacco plants (Nicotiana tobacam CV H425) as described by Horsch (1985). The Agrobacterium cells inserted the variant EPSP synthase gene into the chromosomes of the plant cells. Plant cells resistant to kanamycin were selected and regenerated into differentiated plants by the procedure of Horsch (1985).
Progeny of these plants were propagated and grown to a rosette diameter of about 10 cm corresponding to a plant age of about four weeks. The plants were sprayed with glyphosate at levels corresponding to 0.4, 2.0 and 3.6 pounds acid equivalent/acre. The effect of glyphosate on the transformed plants were scored at 7, 14 and 28 days. The effect was translated to a numerical scale of 0-10 in which 0 represents total kill and 10 is the normal, unsprayed plant. […] The values represent the best transformant for both wild-type EPSP synthase and glypho sate-tolerant EPSP synthase genes.

O=C(O)CNCP(=O)(O)O [glyphosate, N-phosphonomethylglycine]
Relative Effect of Glyphosate (0 total kill, 10 no effect) (0.4 pounds/acre (0.448 kg/hectare), day 7, best transformant): 8.0
Relative Effect of Glyphosate (0 total kill, 10 no effect) (0.4 pounds/acre (0.448 kg/hectare), day 14, best transformant): 8.0
Relative Effect of Glyphosate (0 total kill, 10 no effect) (0.4 pounds/acre (0.448 kg/hectare), day 28, best transformant): 9.0
Relative Effect of Glyphosate (0 total kill, 10 no effect) (2.0 pounds/acre (2.242 kg/hectare), day 7, best transformant): 8.0
Relative Effect of Glyphosate (0 total kill, 10 no effect) (2.0 pounds/acre (2.242 kg/hectare), day 14, best transformant): 8.3
Relative Effect of Glyphosate (0 total kill, 10 no effect) (2.0 pounds/acre (2.242 kg/hectare), day 28, best transformant): 7.0
Relative Effect of Glyphosate (0 total kill, 10 no effect) (3.6 pounds/acre (4.035 kg/hectare), day 7, best transformant): 5.0
Relative Effect of Glyphosate (0 total kill, 10 no effect) (3.6 pounds/acre (4.035 kg/hectare), day 14, best transformant): 7.4
Relative Effect of Glyphosate (0 total kill, 10 no effect) (3.6 pounds/acre (4.035 kg/hectare), day 28, best transformant): 7.0
